#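 Each compound was tested at five concentrations against cells in 96-well plates for 48 hours. The concentration for 50% growth inhibition is given as GI50. TGI: concentration producing complete growth inhibition.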
# What was measured:
# Assay in all cases: NCI-60 cell line screen, 48 h
# [1] = tested on: OVCAR-5 ovarian
# [2] = tested on: HT29 colon
# [3] = tested on: NCI-H23 lung
# [4] = tested on: HOP-92 NSCLC
# [5] = tested on: BT-549 breast
# [6] = tested on: ACHN renal
# [7] = tested on: NCI-H460 lung
# [8] = tested on: UO-31 renal
# [9] = tested on: LOX IMVI melanoma
# [10] = tested on: SNB-75 CNS
# [11] = tested on: M14 melanoma
# [12] = tested on: HL-60(TB) leukemia
# [13] = tested on: DU-145 prostate
# [14] = tested on: OVCAR-4 ovarian
# [15] = tested on: PC-3 prostate
# [16] = tested on: IGROV1 ovarian
# [17] = tested on: HOP-62 NSCLC
# [18] = tested on: SK-OV-3 ovarian
# [19] = tested on: OVCAR-3 ovarian
# [20] = tested on: SK-MEL-2 melanoma
# [21] = tested on: NCI/ADR-RES ovarian
# [22] = tested on: SNB-19 CNS
# [23] = tested on: MOLT-4 leukemia
# [24] = tested on: U251 CNS
# [25] = tested on: RPMI-8226 leukemia
# [26] = tested on: SF-295 CNS
# [27] = tested on: SR leukemia
# [28] = tested on: CCRF-CEM leukemia
# [29] = tested on: HCC-2998 colon
# [30] = tested on: MDA-MB-231 breast
# [31] = tested on: SW-620 colon
# [32] = tested on: NCI-H522 lung
# [33] = tested on: RXF 393 renal
# [34] = tested on: 786-0 renal
# [35] = tested on: A549 NSCLC
# [36] = tested on: CAKI-1 renal
# [37] = tested on: SF-268 CNS
# [38] = tested on: KM12 colon
# [39] = tested on: T-47D breast
# [40] = tested on: HCT-116 colon
# [41] = tested on: UACC-257 melanoma
# [42] = tested on: A498 renal
# [43] = tested on: K-562 leukemia
# [44] = tested on: SK-MEL-5 melanoma
# [45] = tested on: NCI-H226 lung
# [46] = tested on: COLO 205 colon
# [47] = tested on: SK-MEL-28 melanoma
# [48] = tested on: UACC-62 melanoma
# [49] = tested on: EKVX NSCLC
# [50] = tested on: SF-539 CNS
# [51] = tested on: MALME-3M melanoma
# [52] = tested on: MCF7 breast
# [53] = tested on: MDA-MB-435
# [54] = tested on: HS 578T breast
# [55] = tested on: SN12C renal
# [56] = tested on: TK-10 renal
# [57] = tested on: OVCAR-8 ovarian
# [58] = tested on: HCT-15 colon
smiles,measurement,setting,value
Cc1ccncc1N1CCN(c2ccnc(Cl)c2)C1=O,GI50,[1],> 100 µM
same,TGI,[1],> 100 µM
same,GI50,[2],> 100 µM
same,TGI,[2],> 100 µM
same,GI50,[3],> 100 µM
same,TGI,[3],> 100 µM
same,GI50,[4],> 100 µM
same,TGI,[4],> 100 µM
same,GI50,[5],> 100 µM
same,TGI,[5],> 100 µM
same,GI50,[6],> 100 µM
same,TGI,[6],> 100 µM
same,GI50,[7],> 100 µM
same,TGI,[7],> 100 µM
same,GI50,[8],> 100 µM
same,TGI,[8],> 100 µM
same,GI50,[9],> 100 µM
same,TGI,[9],> 100 µM
same,GI50,[10],> 100 µM
same,TGI,[10],> 100 µM
same,GI50,[11],> 100 µM
same,TGI,[11],> 100 µM
same,GI50,[12],> 100 µM
same,TGI,[12],> 100 µM
same,GI50,[13],> 100 µM
same,TGI,[13],> 100 µM
same,GI50,[14],> 100 µM
same,TGI,[14],> 100 µM
same,GI50,[15],> 100 µM
same,TGI,[15],> 100 µM
same,GI50,[16],> 100 µM
same,TGI,[16],> 100 µM
same,GI50,[17],> 100 µM
same,TGI,[17],> 100 µM
same,GI50,[18],> 100 µM
same,TGI,[18],> 100 µM
same,GI50,[19],> 100 µM
same,TGI,[19],> 100 µM
same,GI50,[20],> 100 µM
same,TGI,[20],> 100 µM
same,GI50,[21],> 100 µM
same,TGI,[21],> 100 µM
same,GI50,[22],> 100 µM
same,TGI,[22],> 100 µM
same,GI50,[23],> 100 µM
same,TGI,[23],> 100 µM
same,GI50,[24],> 100 µM
same,TGI,[24],> 100 µM
same,GI50,[25],> 100 µM
same,TGI,[25],> 100 µM
same,GI50,[26],> 100 µM
same,TGI,[26],> 100 µM
same,GI50,[27],> 100 µM
same,TGI,[27],> 100 µM
same,GI50,[28],> 100 µM
same,TGI,[28],> 100 µM
same,GI50,[29],> 100 µM
same,TGI,[29],> 100 µM
same,GI50,[30],> 100 µM
same,TGI,[30],> 100 µM
same,GI50,[31],> 100 µM
same,TGI,[31],> 100 µM
same,GI50,[32],> 100 µM
same,TGI,[32],> 100 µM
same,GI50,[33],> 100 µM
same,TGI,[33],> 100 µM
same,GI50,[34],> 100 µM
same,TGI,[34],> 100 µM
same,GI50,[35],> 100 µM
same,TGI,[35],> 100 µM
same,GI50,[36],> 100 µM
same,TGI,[36],> 100 µM
same,GI50,[37],> 100 µM
same,TGI,[37],> 100 µM
same,GI50,[38],> 100 µM
same,TGI,[38],> 100 µM
same,GI50,[39],> 100 µM
same,TGI,[39],> 100 µM
same,GI50,[40],> 100 µM
same,TGI,[40],> 100 µM
same,GI50,[41],> 100 µM
same,TGI,[41],> 100 µM
same,GI50,[42],> 100 µM
same,TGI,[42],> 100 µM
same,GI50,[43],> 100 µM
same,TGI,[43],> 100 µM
same,GI50,[44],> 100 µM
same,TGI,[44],> 100 µM
same,GI50,[45],> 100 µM
same,TGI,[45],> 100 µM
same,GI50,[46],> 100 µM
same,TGI,[46],> 100 µM
same,GI50,[47],> 100 µM
same,TGI,[47],> 100 µM
same,GI50,[48],> 100 µM
same,TGI,[48],> 100 µM
same,GI50,[49],> 100 µM
same,TGI,[49],> 100 µM
same,GI50,[50],> 100 µM
same,TGI,[50],> 100 µM
same,GI50,[51],> 100 µM
same,TGI,[51],> 100 µM
same,GI50,[52],> 100 µM
same,TGI,[52],> 100 µM
same,GI50,[53],> 100 µM
same,TGI,[53],> 100 µM
same,GI50,[54],> 100 µM
same,TGI,[54],> 100 µM
same,GI50,[55],> 100 µM
same,TGI,[55],> 100 µM
same,GI50,[56],> 100 µM
same,TGI,[56],> 100 µM
same,GI50,[57],> 100 µM
same,TGI,[57],> 100 µM
same,GI50,[58],> 100 µM
same,TGI,[58],> 100 µM
